“And” between values parts separate entries of the source, which are not always exact repeats. Identical values can stand only once. Counter-ions that a name gives are not always drawn. Like-named read-outs stand apart in the source and are kept apart here.
Experiments:
human OPRM1 (μ, MOR) [1] = molecular target: T1, human OPRM1 (μ, MOR) (Homo sapiens, UniProt P35372); assay: cell-based; settings: for EC50: PathHunter human OPRM1 Arrestin CHO-K1 cell line, read-out: β-Arrestin EC50; for Emax: OPRM1, read-out: β-Arrestin Emax
T1 construct: host or cells: CHO-K1
T1 sequence (P35372 whole entry): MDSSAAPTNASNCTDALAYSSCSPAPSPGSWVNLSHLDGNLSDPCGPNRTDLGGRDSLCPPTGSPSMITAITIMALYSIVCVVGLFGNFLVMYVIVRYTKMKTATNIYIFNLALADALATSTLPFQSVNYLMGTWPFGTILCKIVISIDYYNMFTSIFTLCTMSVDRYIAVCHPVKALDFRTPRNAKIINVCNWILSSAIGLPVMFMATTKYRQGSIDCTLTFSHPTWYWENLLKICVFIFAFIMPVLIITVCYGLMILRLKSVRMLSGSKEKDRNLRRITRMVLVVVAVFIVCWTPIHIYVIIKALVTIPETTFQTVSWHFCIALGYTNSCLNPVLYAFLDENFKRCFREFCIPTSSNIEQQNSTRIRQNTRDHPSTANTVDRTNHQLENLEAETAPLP
How it was run: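 β-Arrestin-2 recruitment was measured in PathHunter CHO-K1 cells expressing ED-tagged human OPRM1 and EA-fused arrestin. Agonist-driven recruitment restores β-galactosidase activity by enzyme fragment complementation, read by chemiluminescence.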

human OPRM1 (μ, MOR) [2] = molecular target: T1, human OPRM1 (μ, MOR); assay type: cell-based; settings: for ΔRA of compound: relative activity from EC50 and Emax of β-arrestin vs cAMP, lower RA = more G-protein biased
How it was run: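 Activity measured in cell assays for G-protein signaling and for β-arrestin recruitment. A relative activity (RA) value was derived by comparing the two readouts, taking both EC50 and Emax into account.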

human OPRM1 (μ, MOR) [3] = molecular target: T1, human OPRM1 (μ, MOR); assay: cell-based; settings: for Emax: OPRM1, read-out: cAMP Emax; for EC50: PathHunter human OPRM1 Arrestin CHO-K1 cell line, read-out: cAMP EC50
Protocol: G-protein signaling was measured via second messenger cAMP modulation. Detection of cAMP modulation was accomplished in the PathHunter human OPRM1 (μ, MOR) Arrestin CHO-K1 cell line using the Dynamic2 cAMP Kit from Cisbio.

Structure (SMILES)	melting point	β-Arrestin Emax (human OPRM1 (μ, MOR) [1]) [%]	EC50 (human OPRM1 (μ, MOR) [1])	Bias Factor (ΔRA of compound relative to ΔRA of DAMGO) × 10 (human OPRM1 (μ, MOR) [2])	ΔRA of compound (human OPRM1 (μ, MOR) [2])	Emax (human OPRM1 (μ, MOR) [3]) [%]	EC50 (human OPRM1 (μ, MOR) [3])	β-Arrestin Emax (human OPRM1 (μ, MOR) [1]; hydrochloride)	Bias Factor (ΔRA of compound relative to ΔRA of DAMGO) × 10 (human OPRM1 (μ, MOR) [2]; hydrochloride)	ΔRA of compound (human OPRM1 (μ, MOR) [2]; hydrochloride)	cAMP Emax (human OPRM1 (μ, MOR) [3]; hydrochloride)	Emax (human OPRM1 (μ, MOR) [1]) [%]	cAMP Emax (human OPRM1 (μ, MOR) [3]) [%]
CN(C)C(CNC(=O)N1Cc2ccc(O)cc2C1)c1ccc(O)cc1 (stereo not shown) (as salt: hydrobromid) [Compound 24, N-(2-(dimethylamino)-2-(4-hydroxyphenyl)ethyl)-5-hydroxyisoindoline-2-carboxamide hydrobromide]	185 °C (dec.)	–	–	–	–	–	–	–	–	–	–	–	–
COc1ccc(C(CNC(=O)N2Cc3ccc(F)cc3C2)N(C)C)cc1 (stereo not shown) (as salt: hydrochloride) [Compound 16a, N-(2-(Dimethylamino)-2-(4-methoxyphenyl)ethyl)-5-fluoroisoindoline-2-carboxamide hydrochloride]	145 to 149 °C (dec.)	–	–	–	–	–	–	–	–	–	–	–	–
CN(C)C(CNC(=O)N1Cc2ccccc2C1)c1ccc(F)cc1Cl (stereo not shown) (as salt: hydrochloride) [Compound 14a, N-(2-(2-Chloro-4-fluorophenyl)-2-(dimethylamino)ethyl)isoindoline-2-carboxamide hydrochloride]	147 to 149 °C	–	–	–	–	–	–	–	–	–	–	–	–
CN(C)C(CNC(=O)N1Cc2ccc(F)cc2C1)c1ccccc1 (stereo not shown) (as salt: hydrochloride) [Compound 20a, N-(2-(Dimethylamino)-2-phenylethyl)-5-fluoroisoindoline-2-carboxamide hydrochloride]	148 to 150 °C	–	–	–	–	–	–	–	–	–	–	–	–
CN(C)C(CNC(=O)N1Cc2ccccc2C1)c1ccccc1 (single isomer, unassigned) [Compound 57]	–	<1	> 100000 nM	<−14.83	<−2.96	89.4	72 nM	–	–	–	–	–	–
CN(C)C(CNC(=O)N1Cc2ccc(F)cc2C1)c1ccsc1 (single isomer, unassigned) [2a-ent-(+), (+)—N-(2-(Dimethylamino)-2-(thiophen-3-yl)ethyl)-5-fluoroisoindoline-2-carboxamide hydrochloride]	–	–	1080 nM and 1010 nM	–	–	–	18 nM and 58 nM	6.57, 13.7%	−9.24	−2.40	99.5, 95.4%	–	–
CN(C)C(CNC(=O)N1Cc2ccc(F)cc2C1)c1ccc(F)cc1Cl (stereo not shown) [Compound 17a, N-(2-(2-Chloro-4-fluorophenyl)-2-(dimethylamino)ethyl)-5-fluoroisoindoline-2-carboxamide hydrochloride]	–	–	5120 nM	−12.08	−2.69	111	43 nM	–	–	–	–	27	–
CN(C)C(CNC(=O)N(C)[C@@H]1CCCc2ccccc21)c1ccsc1 (stereo partly shown) [Compound 45]	–	–	> 100000 nM	<−14.83	<−2.96	101	276 nM	–	–	–	–	8.1	–
CN(C)C(CNC(=O)N1CCCc2ccc(O)cc21)c1ccsc1 (stereo not shown) [Compound 49]	–	–	> 100000 nM	<−14.83	<−2.96	97	998 nM	–	–	–	–	< 1	–
CN(C)C1(CNC(=O)N2Cc3ccc(F)cc3C2)CCCC1 [Compound 63]	–	–	> 100000 nM	<−14.83	<−2.96	87.9	2510 nM	–	–	–	–	< 1	–
COc1ccc(C(CNC(=O)N2Cc3ccc(F)cc3C2)N(C)C)cc1 (stereo not shown) [Compound 16a, N-(2-(Dimethylamino)-2-(4-methoxyphenyl)ethyl)-5-fluoroisoindoline-2-carboxamide hydrochloride]	–	–	950 nM	−9.60	−2.44	91.9	26 nM	–	–	–	–	12.2	–
CN(C)C(CNC(=O)N1Cc2ccccc2C1)c1ccccc1 (single isomer, unassigned) [Compound 58]	–	35.2	1890 nM	−1.66	−1.65	–	132 nM	–	–	–	–	–	109.1
CN(C)[C@H](CCNC(=O)N1Cc2ccc(F)cc2C1)c1ccsc1 [Compound 30-R, (R)—N-(3-(Dimethylamino)-3-(thiophen-3-yl)propyl)-5-fluoroisoindoline-2-carboxamide]	–	–	5730 nM	−5.73	−2.05	109	603 nM	–	–	–	–	9.2	–
CN(C)[C@H](CCNC(=O)N1CC[C@H](c2ccccc2)C1)c1ccsc1 [Compound 75]	–	–	17000 nM	−3.97	−1.88	114	2090 nM	–	–	–	–	12.2	–
CN(C)C(CNC(=O)N1Cc2ccc(F)cc2C1)c1ccccc1 (stereo not shown) [Compound 20a, N-(2-(Dimethylamino)-2-phenylethyl)-5-fluoroisoindoline-2-carboxamide hydrochloride]	–	–	> 100000 nM	<−14.83	<−2.96	70.8	31 nM	–	–	–	–	3.65	–
CNC(CNC(=O)N1Cc2ccc(F)cc2C1)c1ccc(OC)cc1 (stereo not shown) [Compound 83]	–	13.4	> 100000 nM	<−14.83	<−2.96	–	57 nM	–	–	–	–	–	100.1
COc1ccc(C(CNC(=O)N2Cc3ccccc3C2)N(C)C)cc1 (stereo not shown) [Compound 15a, N-(2-(Dimethylamino)-2-(4-methoxyphenyl)ethyl)isoindoline-2-carboxamide hydrochloride]	–	–	1370 nM	−8.71	−2.35	108	15 nM	–	–	–	–	44.2	–
CN(C)C(CNC(=O)N1CCCc2cc(F)ccc21)c1ccccc1 (stereo not shown) [Compound 70a]	–	–	11000 nM	−10.82	−2.56	90.3	512 nM	–	–	–	–	5.3	–
CN(C)[C@H](CCNC(=O)N1CC[C@@H](c2ccccc2)C1)c1ccsc1 [Compound 76]	–	–	> 100000 nM	<−14.83	<−2.96	33	1760 nM	–	–	–	–	< 1	–
CN(C)C(CNC(=O)N1Cc2ccccc2C1)c1ccsc1 (stereo not shown) [Compound 1a, N-(2-(Dimethylamino)-2-(thiophen-3-yl)ethyl)isoindoline-2-carboxamide hydrochloride]	–	–	186 nM	−5.75	−2.06	69.2	20 nM	–	–	–	–	5.67	–
CN(C)C1(CNC(=O)N2Cc3ccccc3C2)CCCC1 [Compound 64]	–	–	> 100000 nM	<−14.83	<−2.96	88.7	2150 nM	–	–	–	–	< 1	–
CN(C)[C@@H](CCNC(=O)N1Cc2ccc(F)cc2C1)c1ccsc1 [Compound 30-S, (S)—N-(3-(Dimethylamino)-3-(thiophen-3-yl)propyl)-5-fluoroisoindoline-2-carboxamide]	–	–	> 100000 nM	<−14.83	<−2.96	96.1	688 nM	–	–	–	–	9.9	–
CN(C)C(CNC(=O)N1Cc2ccc(O)cc2C1)c1ccc(O)cc1 (stereo not shown) [Compound 24, N-(2-(dimethylamino)-2-(4-hydroxyphenyl)ethyl)-5-hydroxyisoindoline-2-carboxamide hydrobromide]	–	–	> 100000 nM	<−14.83	<−2.96	< 10	> 100000 nM	–	–	–	–	< 1	–
